Source: ChEMBL document CHEMBL3763039, “Development and Characterization of Potent Cyclic Acyldepsipeptide Analogues with Increased Antimicrobial Activity” (2016)
≈ marks a conversion by molar mass, not a printed value. Where a SMILES comes first, the peptide text is derived from it. Bridges are numbered along the chain shown (N, C = ends). [ ]: non-standard residue; d: D form. The star is where a group is joined. Phe(3,5-F2) = N[C@@H](Cc1cc(F)cc(F)c1)C(=O)O; Pip(4S-Me) = C[C@H]1CCN[C@H](C(=O)O)C1; Pro(4R-Me) = C[C@H]1CN[C@H](C(=O)O)C1; Tiq1c(1S) = O=C(O)[C@H]1NCCc2ccccc21; Bta = N[C@@H](Cc1csc2ccccc12)C(=O)O; Heptenoyl(2E) = CCCC/C=C/C(=O)*; Cha = N[C@@H](CC1CCCCC1)C(=O)O; aThr = C[C@H](O)[C@H](N)C(=O)O; Pip = O=C(O)[C@@H]1CCCCN1; Abu = CC[C@H](N)C(=O)O; Dap = NC[C@H](N)C(=O)O

Legend:
Format in all cases: functional
[1] = tested on: Enterococcus faecalis; test: Antibacterial activity against vancomycin-resistant Enterococcus faecalis V583 incubated for 16 to 18 hrs by broth microdilution method
[2] = tested on: Escherichia coli; test: Antibacterial activity against Escherichia coli MC4100 incubated for 16 to 18 hrs by broth microdilution method
[3] = tested on: Streptococcus pneumoniae; test: Antibacterial activity against Streptococcus pneumoniae D39 incubated for 16 to 18 hrs by broth microdilution method
[4] = tested on: Staphylococcus aureus; test: Antibacterial activity against Staphylococcus aureus ATCC 29213 incubated for 16 to 18 hrs by broth microdilution method
[5] = tested on: Pseudomonas aeruginosa; test: Antibacterial activity against Pseudomonas aeruginosa PAO1 incubated for 16 to 18 hrs by broth microdilution method
[6] = tested on: Neisseria meningitidis; test: Antibacterial activity against Neisseria meningitidis H44/76 incubated for 16 to 18 hrs by broth microdilution method
[7] = tested on: Staphylococcus aureus; test: Antibacterial activity against methicillin-resistant Staphylococcus aureus 1784A incubated for 16 to 18 hrs by broth microdilution method
[8] = tested on: Listeria innocua; test: Antibacterial activity against Listeria innocua incubated for 16 to 18 hrs by broth microdilution method
[9] = tested on: Staphylococcus aureus; test: Antibacterial activity against Staphylococcus aureus subsp. aureus Newman clinical isolate incubated for 16 to 18 hrs by broth microdilution method
[10] = tested on: Bacillus subtilis; test: Antibacterial activity against Bacillus subtilis PY79 incubated for 16 to 18 hrs by broth microdilution method
[11] = tested on: Neisseria gonorrhoeae; test: Antibacterial activity against chloramphenicol-resistant Neisseria gonorrhoeae N.279 incubated for 16 to 18 hrs by broth microdilution method
[12] = tested on: Escherichia coli; test: Antibacterial activity against Escherichia coli MC4100 expressing lptD-4213 incubated for 16 to 18 hrs by broth microdilution method
[13] = tested on: Neisseria meningitidis; test: Antibacterial activity against clpP deficient Neisseria meningitidis H44/76 incubated for 16 to 18 hrs by broth microdilution method

SMILES	MIC [1] [µg/mL]	MIC [2] [µg/mL]	MIC [3] [µg/mL]	MIC [4] [µg/mL]	MIC [5] [µg/mL]	MIC [6] [µg/mL]	MIC [7] [µg/mL]	MIC [8] [µg/mL]	MIC [9] [µg/mL]	MIC [10] [µg/mL]	MIC [11] [µg/mL]	MIC [12] [µg/mL]	MIC [13] [µg/mL]
CCCC/C=C/C(=O)N[C@@H](Cc1cc(F)cc(F)c1)C(=O)N[C@H]1CNC(=O)[C@@H]2C[C@@H](C)CN2C(=O)[C@H](C)NC(=O)[C@@H]2CCCCN2C(=O)[C@@H]2CCCN2C1=O ({Heptenoyl(2E)}-[Phe(3,5-F2)][Dap]P[Pip]A[Pro(4R-Me)]; lactam 2-C)	0.5 (≈ 0.649 µM)	> 128	2 (≈ 2.6 µM)	4 (≈ 5.2 µM)	> 128	1 (≈ 1.3 µM)	16 (≈ 20.8 µM)	≤ 0.0625	16 (≈ 20.8 µM)	4 (≈ 5.2 µM)	1 (≈ 1.3 µM)	> 128	–
CCCC/C=C/C(=O)N[C@@H](CC1CCCCC1)C(=O)N[C@H]1COC(=O)[C@@H]2C[C@@H](C)CN2C(=O)[C@H](CC)NC(=O)[C@@H]2CCCCN2C(=O)[C@@H]2CCCN2C1=O ({Heptenoyl(2E)}-[Cha]SP[Pip][Abu][Pro(4R-Me)]; ester 2-C)	1 (≈ 1.32 µM)	> 128	0.5 (≈ 0.662 µM)	1 (≈ 1.32 µM)	> 128	32 (≈ 42.4 µM)	4 (≈ 5.3 µM)	≤ 0.0625	1 (≈ 1.32 µM)	2 (≈ 2.65 µM)	32 (≈ 42.4 µM)	> 128	–
CCCC/C=C/C(=O)N[C@@H](Cc1cc(F)cc(F)c1)C(=O)N[C@@H]1C(=O)N2CCC[C@H]2C(=O)N2CCCC[C@H]2C(=O)N[C@@H](C)C(=O)N2CCC[C@H]2C(=O)O[C@H]1C	0.0078 (≈ 0.0101 µM)	> 128	≤ 0.0625	0.0078 (≈ 0.0101 µM)	> 128	0.25 (≈ 0.324 µM)	0.125 (≈ 0.162 µM)	≤ 0.0625	0.0625 (≈ 0.0811 µM)	≤ 0.0625	0.125 (≈ 0.162 µM)	> 128	–
C[C@@H]1C[C@H]2C(=O)O[C@@H](C)[C@H](NC(=O)[C@H](Cc3cc(F)cc(F)c3)NC(=O)/C=C/CC3CC3)C(=O)N3CCC[C@H]3C(=O)N3CCCC[C@H]3C(=O)N[C@@H](C)C(=O)N2C1	0.0078 (≈ 0.00996 µM)	> 128	≤ 0.0625	0.0078 (≈ 0.00996 µM)	> 128	0.25 (≈ 0.319 µM)	0.125 (≈ 0.16 µM)	≤ 0.0625	0.0625 (≈ 0.0798 µM)	≤ 0.0625	0.125 (≈ 0.16 µM)	> 128	–
CCCC/C=C/C(=O)N[C@@H](Cc1csc2ccccc12)C(=O)N[C@H]1COC(=O)[C@@H]2C[C@@H](C)CN2C(=O)[C@H](CC)NC(=O)[C@@H]2CCCCN2C(=O)[C@@H]2CCCN2C1=O ({Heptenoyl(2E)}-[Bta]SP[Pip][Abu][Pro(4R-Me)]; ester 2-C)	8 (≈ 9.94 µM)	> 128	8 (≈ 9.94 µM)	8 (≈ 9.94 µM)	> 128	32 (≈ 39.8 µM)	> 128	0.125 (≈ 0.155 µM)	8 (≈ 9.94 µM)	8 (≈ 9.94 µM)	> 128	> 128	–
CCCC/C=C/C(=O)N[C@@H](Cc1cc(F)cc(F)c1)C(=O)N[C@@H]1C(=O)N2CCC[C@H]2C(=O)N2CC[C@H](C)C[C@H]2C(=O)N[C@@H](C)C(=O)N2CCC[C@H]2C(=O)O[C@H]1C ({Heptenoyl(2E)}-[Phe(3,5-F2)][aThr]P[Pip(4S-Me)]AP; ester 2-C)	0.0156 (≈ 0.0199 µM)	> 128	≤ 0.0625	0.0078 (≈ 0.00994 µM)	> 128	0.125 (≈ 0.159 µM)	1 (≈ 1.27 µM)	≤ 0.0625	0.5 (≈ 0.637 µM)	≤ 0.0625	0.125 (≈ 0.159 µM)	> 128	–
O=C(N[C@H](CO)[C@H](O)c1ccc([N+](=O)[O-])cc1)C(Cl)Cl [CHLORAMPHENICOL]	–	3.1 (≈ 9.59 µM)	–	–	8 (≈ 24.8 µM)	0.5 (≈ 1.55 µM)	–	–	–	–	64 (≈ 198 µM)	2 (≈ 6.19 µM)	1 (≈ 3.09 µM)
CCCC/C=C/C(=O)N[C@@H](Cc1cc(F)cc(F)c1)C(=O)N[C@H]1COC(=O)[C@@H]2C[C@@H](C)CN2C(=O)[C@H](CC)NC(=O)[C@@H]2c3ccccc3CCN2C(=O)[C@@H]2CCCN2C1=O ({Heptenoyl(2E)}-[Phe(3,5-F2)]SP[Tiq1c(1S)][Abu][Pro(4R-Me)]; ester 2-C)	0.25 (≈ 0.3 µM)	> 128	0.5 (≈ 0.6 µM)	4 (≈ 4.8 µM)	> 128	8 (≈ 9.6 µM)	4 (≈ 4.8 µM)	0.125 (≈ 0.15 µM)	8 (≈ 9.6 µM)	2 (≈ 2.4 µM)	8 (≈ 9.6 µM)	> 128	–
